One data set relates to NCI‐H2122 cells. As to the kind of experiment: Apoptosis detection (Annexin-V-FITC/PI). It is filed as cell-based, human. To be noted: 24 h. As for the experimental part:
NCI-H2122 cells treated with the given disposal were digested with trypsin, resuspended
in cold PBS, and centrifuged at room temperature (1000×g for 5 min) to discard the
supernatant. Approximately 100,000 cells were collected and 195 μL of Annexin V-FITC
conjugate was added to gently resuspend the cells and then 5 μL of Annexin V-FITC and 10
μL of propidium iodide (PI) staining solution were added respectively. They were then
incubated at 37 °C for 10-20 min in the dark, placed on ice, and passed through a flow
cytometer (Becton, Dickinson, Calibur, USA) for online detection. […]
(1 picture or pasted object on this page, not shown here)

The subject of another data set is NCI‐H2122 tumor. Briefly: NCI-H2122 subcutaneous transplantation tumor model. To be noted: i.p., q2d. It is filed as in vivo, BALB/c‐nu mouse. How it is done: NCI‐H2122 cells in the logarithmic growth phase were collected by mixing serum‐free RMPI‐1640 medium and Matrigel matrix gel, and injected subcutaneously into the right axilla of thymus‐less male BALB/c‐nu nude mice. Tumor volume was calculated according to V = ab^2/2 (where a and b are the long and short diameters of the tumor, respectively), and body weight was recorded every 3 days. When the tumor volume reached 100 mm^3, the mice were randomly divided into six groups (ten mice in each group): Control group (i.p, q2d), SHP099 (20 mg kg^−1, i.p, q2d) group, GDC‐0152 (20 mg kg^−1, i.p, q2d) group, SHP099 (20 mg kg^−1, i.p, q2d) + GDC‐ 0152 (20 mg kg^−1, i.p, q2d) co‐administration group, embelin (20 mg kg^−1, i.p, q2d) medium‐dose group and embelin (30 mg kg^−1, i.p, q2d) high‐dose group. When the tumor volume reached 1000 mm^3, all experimental mice were sacrificed, and tumor tissues and major organs, such as the heart, liver, spleen, lungs, and kidneys, were collected for further study.

The next data set concerns the target T1, PTP1B (Homo sapiens, UniProt P18031).
T1 construct: His; made in house; host or cells: E. coli
T1 sequence (P18031 1-435): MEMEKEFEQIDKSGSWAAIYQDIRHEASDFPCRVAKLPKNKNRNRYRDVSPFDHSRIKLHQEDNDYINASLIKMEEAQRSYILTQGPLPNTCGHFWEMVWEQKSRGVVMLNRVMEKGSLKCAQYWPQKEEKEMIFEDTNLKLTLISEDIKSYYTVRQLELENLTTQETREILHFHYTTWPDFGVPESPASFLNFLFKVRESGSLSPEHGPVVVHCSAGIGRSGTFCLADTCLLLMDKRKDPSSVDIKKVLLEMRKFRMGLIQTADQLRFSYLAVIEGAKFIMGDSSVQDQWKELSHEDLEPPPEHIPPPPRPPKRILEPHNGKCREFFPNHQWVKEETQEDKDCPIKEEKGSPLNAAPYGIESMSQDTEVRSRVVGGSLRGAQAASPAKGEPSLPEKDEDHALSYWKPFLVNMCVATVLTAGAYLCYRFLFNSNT
As to the kind of experiment: PTPs activity assay (DiFMUP). It is filed as biochemical. To be noted: read-out: IC50 of PTPs PTP1B.

The next data set addresses T2, VHR (Homo sapiens, UniProt P51452).
T2 construct: His; made in house; host or cells: E. coli
Briefly: PTPs activity assay (DiFMUP). It is filed as biochemical.

Another data set has as its target T3, TCPTP (Homo sapiens, UniProt P17706).
T3 construct: His; made in house; host or cells: E. coli
T3 sequence (P17706 1-415): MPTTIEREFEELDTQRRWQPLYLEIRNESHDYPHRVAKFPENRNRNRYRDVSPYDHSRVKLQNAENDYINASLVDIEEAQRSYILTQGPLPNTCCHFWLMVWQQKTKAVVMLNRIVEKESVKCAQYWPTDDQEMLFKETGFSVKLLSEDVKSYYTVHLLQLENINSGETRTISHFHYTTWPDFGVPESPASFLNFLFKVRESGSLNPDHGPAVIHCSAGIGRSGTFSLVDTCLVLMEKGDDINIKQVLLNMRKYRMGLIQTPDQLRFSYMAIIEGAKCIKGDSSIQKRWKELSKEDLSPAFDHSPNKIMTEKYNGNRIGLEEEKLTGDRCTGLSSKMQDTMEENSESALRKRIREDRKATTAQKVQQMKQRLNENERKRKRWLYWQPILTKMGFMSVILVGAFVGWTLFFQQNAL
Briefly: PTPs activity assay (DiFMUP). It is filed as biochemical.

Each structure is given as a SMILES string. A value given as a limit tells only on which side of the number the result lay.

T2 sequence (P51452 whole entry): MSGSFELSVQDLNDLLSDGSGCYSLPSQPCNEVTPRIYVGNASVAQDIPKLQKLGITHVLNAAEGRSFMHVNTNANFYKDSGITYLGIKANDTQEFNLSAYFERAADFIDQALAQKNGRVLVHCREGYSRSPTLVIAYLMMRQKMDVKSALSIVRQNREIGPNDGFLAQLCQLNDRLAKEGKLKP

A word on the IC50: it is the midpoint of a concentration-inhibition curve. Take `CCCCCCCCCCCC1=C(O)C(=O)C=C(O)C1=O` [Embelin]: the effect on apoptosis entry in the data set with NCI‐H2122 cells is “increased the proportion of early and late apoptotic cells”. In addition, the “effect on body weight of the mice” value in the data set on NCI‐H2122 tumor is recorded as “little or no effect on the body weight”. For the same compound, in the data set on NCI‐H2122 tumor, the “effect on weights of hearts, livers, lungs, and kidneys and structure of hearts and kidneys” value is on record as “no significant effect”. For the same compound, the “effect on tumor growth in vivo” value in the data set on NCI‐H2122 tumor (embelin 20 and 30 mg kg^−1, GDC‐0152 20 mg kg^−1 + SHP099 20 mg kg^−1) is recorded as “significantly inhibited the tumor growth rate”. Besides, the IC50 on PTP1B, at VHR and against TCPTP was more than 200 µM each time.

As for `O=C1Nc2ccc(I)cc2/C1=C/c1cc(Br)c(O)c(Br)c1` [S2872, GW5074], the IC50 came to 110 µM on PTP1B, 131 µM against VHR and 322 µM against TCPTP.

As to `CC1(N)CCN(c2cnc(-c3cccc(Cl)c3Cl)c(N)n2)CC1` [SHP099], the effect on apoptosis entry in the data set with NCI‐H2122 cells is on record as “promoted apoptosis”. Moreover, in the data set on NCI‐H2122 tumor, the “effect on body weight of the mice” value was “little or no effect on the body weight”; the “effect on weights of hearts, livers, lungs, and kidneys and structure of hearts and kidneys” value was “no significant effect”.

The values above are taken from paper PMC12005787, “Synthetic Lethality of SHP2 and XIAP Suppresses Proliferation and Metastasis in KRAS‐mutant Nonsmall Cell Lung Cancer” (Advanced Science, 2025).
